Data published in patent US10028961B2, “Therapeutically active compounds and their methods of use” (AGIOS PHARMACEUTICALS, INC., priority 2013, dated 2018).

What was measured:
[1] = molecular target: IDH2 R140Q (Homo sapiens (Human), UniProt P48735, R140Q); test: In vitro assay for IDH2m R140Q inhibitors, cofactor depletion assay; type: biochemical; conditions: IDH2 R140Q enzyme
Outline: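 Remaining cofactor measured fluorimetrically: diaphorase/resazurin Stop Mix […], halting the reaction. Before that, mutant enzyme and compound sat 1 h at RT, then substrate mix (4 μM NADPH, 1.6 mM α-KG) was added for 16 h at RT.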

[2] = molecular target: IDH1 wt/IDH1 R132C heterodimer (Homo sapiens (Human), UniProt O75874, R132C); test: In vitro assay for IDH1m R132C inhibitors, IDH1 wt/IDH1 R132C heterodimer, NADPH depletion (diaphorase/resazurin); type: biochemical; conditions: NADPH/NADP
Outline: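 Remaining NADPH was measured by diaphorase/resazurin conversion (5 min, 25 °C) as resorufin fluorescence, Ex 544/Em 590. DMSO was diluted 1:50 into the reaction, and IC50s were derived.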

[3] = test system: U87MG pLVX-IDH2 R140Q-neo cells; test: U87MG pLVX-IDH2 R140Q-neo cell based assay, 2-HG by LC-MS; conditions: Homo sapiens, U-87 MG
[4] = molecular target: IDH1 wt/IDH1 R132H heterodimer (Homo sapiens (Human), UniProt O75874, R132H); test: In vitro assay for IDH1m R132H inhibitors, IDH1 wt/IDH1 R132H heterodimer, NADPH depletion (diaphorase/resazurin); type: biochemical; conditions: IDH1 wt/R132H heterodimer, NADPH/NADP, not saturated; read-out: IDH1 wt/R132H NADPH/NADP IC50 not saturated
Outline: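 Read-out is NADPH left after α-KG reduction to 2-HG, measured via resorufin fluorescence after 5 min diaphorase/resazurin step at 25° C. Enzyme is sf9-expressed IDH1wt-his/IDH1R132H-flag heterodimer, pre-incubated 1 hr at room temperature with compound and cofactor. IC50s from DMSO stocks diluted 1:50.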

Chain of IDH1 wt/IDH1 R132C heterodimer (O75874 whole entry R132C): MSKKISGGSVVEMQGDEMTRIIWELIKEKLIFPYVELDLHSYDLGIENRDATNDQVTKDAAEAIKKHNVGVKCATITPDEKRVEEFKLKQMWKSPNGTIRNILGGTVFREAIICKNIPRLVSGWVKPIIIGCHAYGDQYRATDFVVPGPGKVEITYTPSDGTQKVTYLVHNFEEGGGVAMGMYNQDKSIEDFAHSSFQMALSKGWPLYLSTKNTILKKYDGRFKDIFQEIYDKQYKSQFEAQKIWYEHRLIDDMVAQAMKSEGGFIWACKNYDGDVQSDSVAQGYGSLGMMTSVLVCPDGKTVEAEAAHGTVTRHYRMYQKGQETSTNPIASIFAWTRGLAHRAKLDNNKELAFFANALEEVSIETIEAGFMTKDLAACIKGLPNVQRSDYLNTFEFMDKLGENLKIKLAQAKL
Chain of IDH1 wt/IDH1 R132C heterodimer (O75874 whole entry, stated change not applied): as the sequence (O75874 whole entry R132C) above, with C132R counted along it
Chain of IDH2 R140Q (P48735 40-452 R140Q): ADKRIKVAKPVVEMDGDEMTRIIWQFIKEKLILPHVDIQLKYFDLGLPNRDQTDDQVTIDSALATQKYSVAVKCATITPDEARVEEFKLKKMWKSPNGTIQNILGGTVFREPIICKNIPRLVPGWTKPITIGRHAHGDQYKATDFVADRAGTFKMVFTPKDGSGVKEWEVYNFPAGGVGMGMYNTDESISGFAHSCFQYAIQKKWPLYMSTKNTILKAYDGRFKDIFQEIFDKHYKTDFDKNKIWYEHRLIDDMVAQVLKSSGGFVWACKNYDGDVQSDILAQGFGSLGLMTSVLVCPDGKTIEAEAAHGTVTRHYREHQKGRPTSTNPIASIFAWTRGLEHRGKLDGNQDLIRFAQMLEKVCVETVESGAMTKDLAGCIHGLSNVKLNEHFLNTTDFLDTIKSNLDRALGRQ
Chain of IDH1 wt/IDH1 R132H heterodimer (O75874 whole entry R132H): as the sequence (O75874 whole entry R132C) above, with C132H counted along it
Chain of IDH1 wt/IDH1 R132H heterodimer (O75874 whole entry, stated change not applied): as the sequence (O75874 whole entry R132C) above, with C132R counted along it

IC50 [1]	IC50 [2]	IC50 [3]	IC50 [4]	Structure (SMILES)
< 50 nM	< 50 nM	< 50 nM	< 50 nM	CC(C)(C)Nc1nc(Nc2cccc(C#N)c2)nc(-c2cccc(C(F)(F)F)n2)n1 [Compound 117]
< 50 nM	50 to 100 nM	< 50 nM	< 50 nM	N#CC1(c2cc(Nc3nc(NC4CC5(C4)CC(F)(F)C5)nc(-c4cccc(C(F)(F)F)n4)n3)ccn2)CC1 [Compound 229]
< 50 nM	100 to 1000 nM	< 50 nM	50 to 100 nM	CC(C#N)Nc1nc(Nc2ccnc(C(C)(F)F)c2)nc(-c2cccc(C(F)(F)F)n2)n1 (centres unmarked) [Compound 253]
< 50 nM	< 50 nM	< 50 nM	< 50 nM	C[C@@H](Nc1nc(NC(C2CC2)C2CC2)nc(-c2cccc(C(F)(F)F)n2)n1)C1CC1 [Compound 193]
< 50 nM	< 50 nM	< 50 nM	< 50 nM	N#Cc1cc(F)cc(Nc2nc(NC3CCC(F)(F)C3)nc(-c3cccc(C(F)(F)F)n3)n2)c1 (centres unmarked) [Compound 124]
< 50 nM	< 50 nM	< 50 nM	< 50 nM	FC(F)c1cccc(-c2nc(NC3CC(F)(F)C3)nc(NC3CC(F)(F)C3)n2)n1 [Compound 145]
< 50 nM	< 50 nM	< 50 nM	< 50 nM	FC1(F)CCC(Nc2nc(NC3CCC(F)(F)C3)nc(-c3nccc(C(F)(F)F)n3)n2)C1 (centres unmarked) [Compound 237]
< 50 nM	< 50 nM	< 50 nM	< 50 nM	CC(CC#N)Nc1nc(N[C@H](C)C2CC2)nc(-c2cccc(C(F)(F)F)n2)n1 (some centres unmarked) [Compound 214]
< 50 nM	< 50 nM	< 50 nM	< 50 nM	Fc1cc(F)cc(Nc2nc(NC3CCC(F)(F)C3)nc(-c3cccc(C(F)(F)F)n3)n2)c1 (centres unmarked) [Compound 123]
< 50 nM	< 50 nM	< 50 nM	< 50 nM	N#Cc1cc(Nc2nc(NC3CC(F)(F)C3)nc(-c3cccc(C(F)(F)F)n3)n2)ccn1 [Compound 213]
< 50 nM	< 50 nM	< 50 nM	< 50 nM	C[C@@H](Nc1nc(N[C@H](C)C2CC2)nc(-n2ccc(C(F)(F)F)n2)n1)C1CC1 [Compound 121]
< 50 nM	100 to 1000 nM	< 50 nM	50 to 100 nM	FC1(F)CCC(Nc2nc(NC3CCC(F)(F)C3)nc(-c3cccc(OC(F)(F)F)n3)n2)C1 (centres unmarked) [Compound 252]
< 50 nM	< 50 nM	< 50 nM	< 50 nM	Clc1cccc(-c2nc(NC(C3CC3)C3CC3)nc(NC(C3CC3)C3CC3)n2)n1 [Compound 131]
< 50 nM	< 50 nM	< 50 nM	< 50 nM	FC1(F)CCC(Nc2nc(Nc3ccnc(C(F)(F)F)c3)nc(-c3cccc(C(F)(F)F)n3)n2)CC1 [Compound 192]
50 to 100 nM	100 to 1000 nM	50 to 100 nM	100 to 1000 nM	FC1(F)CCC(Nc2nc(NC3CCC(F)(F)CC3)nc(-c3nccc(C(F)(F)F)n3)n2)CC1 [Compound 293]
< 50 nM	< 50 nM	< 50 nM	< 50 nM	CC(Nc1nc(Nc2ccnc(C3(C#N)CC3)c2)nc(-c2cccc(Cl)n2)n1)C(F)(F)F (centres unmarked) [Compound 134]
< 50 nM	< 50 nM	< 50 nM	< 50 nM	FC1(F)CCC(Nc2nc(Nc3ccnc(C(F)(F)F)c3)nc(-c3cccc(C(F)(F)F)n3)n2)C1 (centres unmarked) [Compound 178]
100 to 1000 nM	100 to 1000 nM	100 to 1000 nM	100 to 1000 nM	Fc1ccc([C@H]2C[C@@H](Nc3nc(N[C@H]4C[C@@H](c5ccc(F)cc5)C4)nc(-c4cccc(C(F)(F)F)n4)n3)C2)cc1 [Compound 272]
< 50 nM	< 50 nM	< 50 nM	< 50 nM	CC(C)(C)Nc1nc(Nc2ccnc(C#N)c2)nc(-c2cccc(C(F)(F)F)n2)n1 [Compound 162]
< 50 nM	< 50 nM	< 50 nM	< 50 nM	FC1(F)CC(Nc2nc(NC3CC(F)(F)C3)nc(-c3nc(C(F)(F)F)cs3)n2)C1 [Compound 128]
< 50 nM	< 50 nM	< 50 nM	< 50 nM	CC(F)(F)c1cccc(-c2nc(NC3CC(F)(F)C3)nc(NC3CC(F)(F)C3)n2)n1 [Compound 187]
100 to 1000 nM	50 to 100 nM	100 to 1000 nM	< 50 nM	FC1(F)CCC(Nc2nc(NC3CCN(c4ccccn4)C3)nc(-c3cccc(C(F)(F)F)n3)n2)C1 (centres unmarked) [Compound 222]
< 50 nM	< 50 nM	< 50 nM	< 50 nM	N#CC1(c2cc(Nc3nc(NC4CCC(F)(F)C4)nc(-c4cccc(Cl)n4)n3)ccn2)CC1 (centres unmarked) [Compound 127]
